Tests used:
[1] = system: dorsal skin of atopic mice; assay: Histopathology (H&E) of dorsal skin: thickness of epidermis and dermis; type: in vivo, Balb/C mice; conditions: for thickness of the epidermis: DNCB only 320.2±21.6 μm, sham 26.1±1.0 μm; for thickness of dermis: DNCB only 930.2±34.2 μm, sham 384.7±11.4 μm
Experimental: In order to test efficacy of the sodium taurodeoxycholate (HY2191) composition on atopic dermatitis, dermatitis lesion was induced at the shaved-back of 6 weeks old male Balb/C mice. DNCB (2,4-dinitro-1-chlorobenzene, Sigma) was used as a hapten. Five mice for each group were tested. The amount of IgE in blood of mice was measured to evaluate an inhibitory effect of a medication on IgE production. To make skin lesion of atopic dermatitis, 100 μL of a DNCB solution (2.5% in acetone) was applied on the shaved-back of the mouse at day 1. One hundred μL of DNCB (1% in acetone) was applied at day 4 and 100 μL of 0.2% DNCB in acetone at day 10. From the day 7 to the day 14, 100 μL of the composition of 2.5% or 5% sodium taurodeoxycholate (HY2191) of example 1 was applied on the back of mice twice a day. Maxidex ointment (Dexamethasone, Alcon Korea) and Protopic ointment (Tacrolimus, Astellas Pharma Korea) were used for positive control groups and only a vehicle was used for a negative control group. The dorsal skin flaps of the mice were fixed in a 10% formalin solution for 24 hours and then washed with distilled water. The paraffin blocks of the fixed skins were prepared and sectioned (thickness of 7 μm). They were stained with hematoxylin and eosin (H&E) (FIG. 5A). The thickness of epidermis and the dermis of mice treated with DNCB only were 320.2±21.6 μm and 930.2±34.2 μm, respectively. […] The thickness of dermis from the group of atopic mice treated with 2.5% sodium taurodeoxycholate (HY2191), 5% sodium taurodeoxycholate (HY2191), or Protopic were 616.0±21.1 μm, 521.7±18.3 μm, and 572.6±20.2 μm, respectively.

[2] = system: atopic dermatitis lesions on shaved-back of Balb/C mice; assay: Clinical score of DNCB-induced atopic dermatitis lesions (five items, worst score 15); type: in vivo; conditions: day 15
Experimental: (§1) In order to test efficacy of the sodium taurodeoxycholate (HY2191) composition on atopic dermatitis, dermatitis lesion was induced at the shaved-back of 6 weeks old male Balb/C mice. DNCB (2,4-dinitro-1-chlorobenzene, Sigma) was used as a hapten.
Five mice for each group were tested. The amount of IgE in blood of mice was measured to evaluate an inhibitory effect of a medication on IgE production. To make skin lesion of atopic dermatitis, 100 μL of a DNCB solution (2.5% in acetone) was applied on the shaved-back of the mouse at day 1. One hundred μL of DNCB (1% in acetone) was applied at day 4 and 100 μL of 0.2% DNCB in acetone at day 10. […]
In order to evaluate the efficacy of sodium taurodeoxycholate on atopic dermatitis, atopic dermatitis was induced on shaved-back of Balb/C mice with DNCB according to experimental example 1 and clinical scores of atopic dermatitis lesions incurred on the back of animal model was evaluated on day 15. To evaluate clinical scores at day 15, (1) the frequency of scratching for 2 minutes, (2) the severity of erythema/hemorrhage, (3) edema, (4) excoriation/erosion, and (5) scaling/dryness were graded and were scored from 0 (none) to 3 (severe), making the worst score 15 for the most severe subject. The every subject in every group was evaluated by three people in a double-blind method. The mean clinical score of individual mouse was calculated.

IL-4 = assay: Serum TH2 cytokine IL-4 by ELISA in DNCB-induced atopic dermatitis mice; type: in vivo, Balb/C mice; conditions: 5% composition; better than mice treated with Protopic or Maxidex (p<0.05)
neutrophils = assay: Neutrophils infiltrated into the dermis (specific esterase, Naphthol AS-D chloroacetate); type: in vivo, Balb/C mice; conditions: compared with vehicle-treated group
Experimental: as §1
(§2) Five mice for each group were tested. The amount of IgE in blood of mice was measured to evaluate an inhibitory effect of a medication on IgE production. To make skin lesion of atopic dermatitis, 100 μL of a DNCB solution (2.5% in acetone) was applied on the shaved-back of the mouse at day 1. One hundred μL of DNCB (1% in acetone) was applied at day 4 and 100 μL of 0.2% DNCB in acetone at day 10.
(§3) From the day 7 to the day 14, 100 μL of the composition of 2.5% or 5% sodium taurodeoxycholate (HY2191) of example 1 was applied on the back of mice twice a day. Maxidex ointment (Dexamethasone, Alcon Korea) and Protopic ointment (Tacrolimus, Astellas Pharma Korea) were used for positive control groups and only a vehicle was used for a negative control group.
(§4) The number of mast cells, eosinophils, and neutrophils infiltrated into the dermis were counted after staining skins with toluidine blue, congo red, or specific esterase (Naphthol AS-D chloroacetate), respectively. […] On the other hand, the number of neutrophils critical for acute inflammation was increased in the group of atopic mice treated with Protopic.

mast cells = assay: Mast cells infiltrated into the dermis (toluidine blue); type: in vivo, Balb/C mice; conditions: compared with vehicle-treated group (p<0.05)
Experimental: as §1, §2, §3, §4

eosinophils = assay: Eosinophils infiltrated into the dermis (congo red); type: in vivo, Balb/C mice; conditions: compared with vehicle-treated group (p<0.05)
Experimental: as §1, §2, §3, §4

serum IgE = assay: Serum IgE level by ELISA in DNCB-induced atopic dermatitis mice; type: in vivo, Balb/C mice; conditions: FIG. 3
Experimental: as §1, §2, §3
After the clinical evaluation described at Experimental Example 2, a mixture containing 0.4% of Zoletil (Virbac, Milano Italy) and 0.04% of Rompun (Bayer Korea) in normal saline was injected i.p. to anesthetize each mouse. Blood samples were collected from the heart of the mice. The serum was prepared to measure the concentration of IgE using enzyme immunoassay (Mouse IgE ELISA, BD). […]

IFN-γ = assay: Serum TH1 cytokine IFN-γ by ELISA in DNCB-induced atopic dermatitis mice; type: in vivo, Balb/C mice; conditions: 5% composition; far better than mice treated with Protopic or Maxidex (p<0.05)
IL-2 = assay: Serum TH1 cytokine IL-2 by ELISA in DNCB-induced atopic dermatitis mice; type: in vivo, Balb/C mice; conditions: 5% composition; far better than mice treated with Protopic or Maxidex (p<0.05)

## C[C@H](CCC(=O)NCCS(=O)(=O)O)[C@H]1CC[C@H]2[C@@H]3CC[C@@H]4C[C@H](O)CC[C@]4(C)[C@H]3C[C@H](O)[C@]12C [sodium taurodeoxycholate (HY2191), sodium taurodeoxycholate]
[1]; 2.5% composition
  thickness of the epidermis: 105.3±7.0 μm
  thickness of dermis: 616.0±21.1 μm
[1]; 5% composition
  thickness of the epidermis: 75.0±8.4 μm
  thickness of dermis: 521.7±18.3 μm
[2]; 5% composition, compared to positive control group that received Maxidex ointment or Protopic ointment
  clinical scores: better clinical scores
[2]; compared to negative control group treated with vehicle only, topical twice a day, day 7 to 14
  clinical score: better clinical score
IL-4
  level of IL-4 (TH2 cytokine) in serum: decreased significantly
neutrophils
  number of neutrophils in the skin of atopic mice: significantly decreased
Mast cells
  number of mast cells in the skin of atopic mice: significantly decreased
eosinophils
  number of eosinophils in the skin of atopic mice: significantly decreased
Serum IgE; 2.5% or 5% composition
  inhibiting serum IgE production: effective in inhibiting serum IgE production
Serum IgE; compared with positive control groups (Maxidex ointment or Protopic ointment)
  serum IgE levels: significantly lower
IFN-γ
  level of IFN-γ (TH1 cytokine) in serum: increased significantly
IL-2
  level of IL-2 (TH1 cytokine) in serum: increased significantly
